Laboratory results: patent publication US20140073639A1 (priority 2012, published 2014)
Values after ≈ are worked out from the molar mass of the structure shown.

Columns and labels:
[1] = assay type: cell-based
[2] = test system: S. MRSA; experiment: microbe, parasite or virus in culture; assay type: cell-based; details: for inhibition at 3 µM / inhibition at 10 µM / inhibition at 30 µM: Staphylococcus aureus, MRSA; for inhibition at 3 µM: read-out: S. MRSA 3 μM (growth inhibition); for inhibition at 10 µM: read-out: S. MRSA 10 μM (growth inhibition); for inhibition at 30 µM: read-out: S. MRSA 30 μM (growth inhibition)
[3] = test system: B. Anthracis; experiment: microbe, parasite or virus in culture; assay type: cell-based; details: for inhibition at 3 µM / inhibition at 10 µM / inhibition at 30 µM: Bacillus anthracis; for inhibition at 3 µM: read-out: B. Anthracis 3 μM (growth inhibition); for inhibition at 10 µM: read-out: B. Anthracis 10 μM (growth inhibition); for inhibition at 30 µM: read-out: B. Anthracis 30 μM (growth inhibition)

SMILES | MIC, 25% Serum [1] [µM] | MIC, No Serum [1] [µM] | inhibition at 3 µM ([2]; 3 μM) [%] | inhibition at 10 µM ([2]; 10 μM) [%] | inhibition at 30 µM ([2]; 30 μM) [%] | inhibition at 3 µM [3] [%] | inhibition at 10 µM ([3]; 10 μM) [%] | inhibition at 30 µM ([3]; 30 μM) [%] | also measured
O=C(O)C(Cc1ccccc1)N1C(=O)/C(=C\c2ncc(-c3ccc(Cl)c(Cl)c3)o2)NC1=S (stereo not shown) [Cmpd 78] | >250 | 250 (≈ 122 µg/mL) | – | – | – | – | – | – | –
NC(=O)C(Cc1ccccc1)N1C(=O)/C(=C\c2ccc(-c3ccc(Cl)c(Cl)c3)o2)NC1=S (stereo not shown) [Cmpd 54] | >250 | >250 | 2.03 | 30.1 | 57.5 | 20.6 | 94.8 | 93 | –
N#CNC(=O)C(Cc1ccccc1)N1C(=O)/C(=C\c2ccc(-c3cccc(Cl)c3)o2)NC1=S (stereo not shown) [Cmpd 68] | >250 | 125 (≈ 59.6 µg/mL) | -0.24 | -1.1 | -0.93 | -1.9 | 6.31 | 12.5 | –
O=C(O)C(Cc1ccccc1)N1C(=O)CNC1=S (stereo not shown) [Cmpd 61] | >250 | >250 | – | – | – | – | – | – | –
O=C(O)C(Cc1ccccc1)N1C(=O)/C(=C\c2ccc(-c3ccc(Cl)cc3)o2)NC1=S (stereo not shown) [Cmpd 38] | >250 | 62.5 (≈ 28.3 µg/mL) | -13.5 | -16.9 | 86.6 | 4.99 | 68.9 | 99.7 | –
O=C(O)C(Cc1ccccc1)N1C(=O)/C(=C\c2ccc(Cl)c(Cl)c2)NC1=S (stereo not shown) [Cmpd 71] | >250 | >250 | -0.86 | -2.74 | -5.12 | 0.05 | -8.93 | -17.3 | –
CCOC(=O)C(Cc1ccccc1)N1C(=O)/C(=C\c2ccc(-c3ccc(Cl)c(Cl)c3)o2)NC1=S (stereo not shown) [Cmpd 55] | >250 | >250 | – | 0.57 | -2.92 | – | -50.8 | -6.41 | –
COc1ccc(-c2ccc(/C=C3/NC(=S)N([C@@H](Cc4ccccc4)C(=O)O)C3=O)o2)cc1Cl [Cmpd 52] | >250 | 62.5 (≈ 30.2 µg/mL) | -7.99 | -11.7 | 82.2 | -5.68 | 27.3 | 95.5 | –
O=C1Nc2ccc(Br)cc2/C1=C1/NC(=S)N(C(Cc2ccccc2)C(=O)O)C1=O (stereo not shown) [Cmpd 31] | >250 | 250 (≈ 118 µg/mL) | – | -8 | -2.22 | – | 2.5 | 88 | –
COc1cc(/C=C2/NC(=S)N(C(Cc3ccccc3)C(=O)O)C2=O)c(Cl)c(Cl)c1O (stereo not shown) [Cmpd 90] | >250 | >250 | – | – | – | – | – | – | –
CNC(=O)c1ccc(-c2ccc(/C=C3/NC(=S)N(C(Cc4ccccc4)C(=O)O)C3=O)o2)cc1 (stereo not shown) [Cmpd 81] | >250 | >250 | – | – | – | – | – | – | –
O=C(O)c1cc(-c2ccc(/C=C3/NC(=S)N(C(Cc4ccccc4)C(=O)O)C3=O)o2)ccc1Cl (stereo not shown) [Cmpd 74] | >250 | >250 | – | – | – | – | – | – | –
CC(C)[C@H](C(=O)O)N1C(=O)C[C@H](NC(=O)c2cocc2-c2ccc(Cl)cc2)C1=O [Cmpd 87] | >250 | >250 | – | – | – | – | – | – | –
O=C([O-])C(Cc1ccccc1)N1C(=O)/C(=C\c2ccc(-c3ccc(Cl)c(Cl)c3)o2)NC1=S.[Na+] (stereo not shown) [Cmpd 66] | >250 | 7.8 | – | – | – | – | – | – | S. MRSA 3 μM (growth inhibition) ([2]; 3 μM): 0.9
O=C1NC(=S)N/C1=C/c1ccc(-c2ccc(Cl)c(Cl)c2)o1 [Cmpd 63] | >250 | 62.5 (≈ 21.2 µg/mL) | – | – | – | – | – | – | –
O=C(O)C(Cc1ccccc1)N1C(=O)/C(=C\c2ccc(-c3ccc(Cl)c(Cl)c3)[nH]2)NC1=S (stereo not shown) [Cmpd 75] | >250 | 62.5 (≈ 30.4 µg/mL) | – | – | – | – | – | – | –
CNC(=O)c1ccc(Cl)c(-c2ccc(/C=C3/NC(=S)N(C(Cc4ccccc4)C(=O)O)C3=O)o2)c1Cl (stereo not shown) [Cmpd 82] | >250 | >250 | – | – | – | – | – | – | –
CNC(=O)c1ccc(-c2ccc(/C=C3/NC(=S)N(C(Cc4ccccc4)C(=O)O)C3=O)o2)cc1Cl (stereo not shown) [Cmpd 85] | >250 | >250 | – | – | – | – | – | – | –
C=CCN1C(=O)/C(=C\c2cc(OCC)c(O)c(Br)c2Cl)NC1=S [Cmpd 88] | >250 | >250 | – | – | – | – | – | – | –
CNC(=O)c1cc(-c2ccc(/C=C3/NC(=S)N(C(Cc4ccccc4)C(=O)O)C3=O)o2)ccc1Cl (stereo not shown) [Cmpd 83] | >250 | >250 | – | – | – | – | – | – | –
O=C(O)C(Cc1ccccc1)N1C(=O)/C(=C\c2ccc(-c3ccc(Cl)nc3Cl)o2)NC1=S (stereo not shown) [Cmpd 73] | >250 | 125 (≈ 61 µg/mL) | – | – | – | – | – | – | –
O=C(O)C(Cc1ccccc1)N1C(=O)/C(=C\c2ccc(-c3ccc(Cl)cc3)s2)NC1=S (stereo not shown) [Cmpd 35] | – | – | -2.94 | -1.47 | 91 | -5.4 | 100 | 100 | –

SMILES | MIC, 25% Serum [1] [µM] | MIC, No Serum [1] [µM] | inhibition at 3 µM ([2]; 3 μM) [%] | inhibition at 10 µM ([2]; 10 μM) [%] | inhibition at 30 µM ([2]; 30 μM) [%] | inhibition at 3 µM [3] [%] | inhibition at 10 µM ([3]; 10 μM) [%] | inhibition at 30 µM ([3]; 30 μM) [%] | also measured
O=C1NC(=S)NC(=O)C1=Cc1ccc(Br)cc1 [Cmpd 16] | – | – | 13.6 | 12 | 8.76 | 0 | 0 | 0 | –
O=C(O)c1cccc(N2C(=O)/C(=C\c3ccc(-c4ccc(Cl)c(Cl)c4)o3)NC2=S)c1 [Cmpd 77] | >250 | 31.3 (≈ 14.4 µg/mL) | – | – | – | – | – | – | –
O=C(O)C(Cc1ccccc1)N1C(=O)/C(=C\c2ccco2)NC1=S (stereo not shown) [Cmpd 62] | >250 | >250 | – | – | – | – | – | – | –
O=C(O)C(Cc1ccccc1)N1C(=O)/C(=C\c2ccc(-c3ccc(F)cc3)s2)NC1=S (stereo not shown) [Cmpd 34] | – | – | -15.8 | -24.8 | 46.2 | 0 | 6.99 | 98.8 | –
CNC(=O)C(Cc1ccccc1)N1C(=O)/C(=C\c2ccc(-c3ccc(Cl)c(Cl)c3)o2)NC1=S (stereo not shown) [Cmpd 56] | >250 | >250 | – | – | – | – | – | – | –
O=C(O)C(Cc1ccccc1)N1C(=O)/C(=C\c2ccc(-c3ccc(Cl)c(Cl)n3)o2)NC1=S (stereo not shown) [Cmpd 76] | >250 | 62.5 (≈ 30.5 µg/mL) | – | – | – | – | – | – | –
O=C(O)CC(C(=O)O)N1C(=O)/C(=C2/C(=O)Nc3ccc(Br)cc32)SC1=S (stereo not shown) [Cmpd 21] | – | – | -6.99 | -2.11 | -2.11 | 15.8 | 13.1 | 14.2 | –
O=C1NC(=S)N(c2cccc(Cl)c2)C(=O)/C1=C/c1ccc(-c2cc(C(=O)O)ccc2Cl)o1 [Cmpd 25] | – | – | -2.21 | -4.41 | -5.15 | -10.8 | -3.09 | -3.09 | –
CCc1ccccc1N1C(=O)/C(=C/c2ccc(-c3cc(C(=O)O)ccc3Cl)o2)C(=O)NC1=S [Cmpd 24] | – | – | -2.94 | 2.2 | -5.88 | -10.8 | -4.63 | -10.8 | –
O=C(O)C(Cc1ccccc1)N1C(=O)/C(=C\c2cc3cc(Br)ccc3o2)NC1=S (stereo not shown) [Cmpd 91] | >250 | 125 (≈ 58.9 µg/mL) | – | – | – | – | – | – | –
C=CCN1C(=O)/C(=C\c2ccc(-c3ccc(Cl)c(Cl)c3)o2)NC1=S [Cmpd 86] | >250 | >250 | – | – | – | – | – | – | –
O=C(O)CN1C(=O)N/C(=C/c2ccc(-c3ccc(Cl)c(Cl)c3)o2)C1=O [Cmpd 79] | >250 | >250 | – | – | – | – | – | – | –
CC(C)C(C(=O)O)N1C(=O)/C(=C2/C(=O)Nc3ccccc32)SC1=S (stereo not shown) [Cmpd 17] | – | – | – | – | – | – | – | – | S. MRSA 10 μM (growth inhibition) ([2]; 10 μM): 14.85; S. MRSA 30 μM (growth inhibition) ([2]; 30 μM): 46.76; B. Anthracis 10 μM (growth inhibition) ([3]; 10 μM): −2.28; B. Anthracis 30 μM (growth inhibition) ([3]; 30 μM): 7.03
O=C(O)C(Cc1ccccc1)N1C(=O)/C(=C\c2ccc(-c3ccc(I)cc3)o2)NC1=S (stereo not shown) [Cmpd 45] | – | – | -1.84 | 88.2 | 92.7 | 49.2 | 97.4 | 96.4 | –
O=C1Nc2ccccc2/C1=C1/SC(=S)N(C(Cc2ccccc2)C(=O)O)C1=O (stereo not shown) [Cmpd 6] | – | – | – | 45.7 | 47.8 | – | 19.6 | 92.6 | –
O=C(O)C(Cc1ccccc1)N1C(=O)/C(=C\c2ccc(-c3cc(Cl)nc(Cl)c3)o2)NC1=S (stereo not shown) [Cmpd 80] | >250 | 62.5 (≈ 30.5 µg/mL) | – | – | – | – | – | – | –
CC(=O)C(Cc1ccccc1)N1C(=O)/C(=C2/C(=O)Nc3cc(Cl)c(Cl)cc32)NC1=S (stereo not shown) [Cmpd 49] | – | – | -7.73 | -20.3 | -26.3 | 1.73 | -7.49 | 97.2 | –
O=C1NC(=O)C(=Cc2ccc(Br)s2)C(=O)N1 [Cmpd 18] | – | – | 13.6 | 15.2 | 18.4 | 0 | 0 | 0 | –
C=CCN1C(=O)/C(=C\c2cc(OC)c(O)c(Cl)c2Cl)NC1=S [Cmpd 89] | >250 | 250 (≈ 89.8 µg/mL) | – | – | – | – | – | – | –
CCN1C(=O)NC(=O)/C(=C\c2ccc(-c3ccc(Cl)c(C(=O)O)c3)o2)C1=O [Cmpd 30] | – | – | 1.47 | -2.94 | -4.41 | -8.49 | 1 | -11.6 | –
O=C(O)C(Cc1ccccc1)N1C(=O)/C(=C\c2oc(Cl)nc2Cl)NC1=S (stereo not shown) [Cmpd 84] | >250 | >250 | – | – | – | – | – | – | –
